Experimental data published in patent publication US20260042854A1, “ANTI-GLP-1R ANTIBODIES AND USES THEREOF” (SCIWIND BIOSCIENCES USA CO., LTD, priority 2022, published 2026).

Legend:
C57BL/6 mice = assay: IPGTT in C57BL/6 mice (exogenous GLP-1 added); format: in vivo, mouse; conditions: GLP-1 25.0 nmol/kg i.p. with glucose
Method: 7-9-week-old male C57BL/6 mice (22-26 g) were assigned into 5 groups, with 5 mice in each group, and the mice in each group were treated according to the scheme shown in Table 6. The antibody treatment groups were given a single subcutaneous injection, and were fasted for 18 hours after the administration. […] The blood glucose levels of the mice before (0 min) and 15 min, 30 min. 60 min, 90 min, 120 min and 180 min after the administration of glucose were measured with blood glucose meter. The AUCs of the blood glucose-time curves of each mouse from 0 to 180 min were calculated with GraphPad Prism 9. The blood glucose levels and the AUCs were shown in Mean±SEM and the differences among groups were compared. Statistical differences were analyzed with One-way ANOVA. […] The significance markers were not shown in the line chart since they would overlap and be difficult to distinguish.

humanized GLP-1R mice = assay: IPGTT in humanized GLP-1R mice (exogenous GLP-1 added); format: in vivo, mouse; conditions: GLP-1 25 nmol/kg i.p. with glucose
Method: 10-week-old female humanized GLP-1R mice (25-28 g, Shanghai Model Organisms Center Inc.) were assigned into 5 groups, with 5 mice in each group, and each group was treated according to the scheme in Table 6. The antibody treatment groups were subcutaneously injected with antibody, while the other groups were subcutaneously injected with vehicle (PBS) once a week for 2 consecutive weeks. IPGTTs were performed one day after the administration. The first subcutaneous administration of the antibody was on Day 0, and the second subcutaneous administration was on Day 7.
The blood glucose levels of the mice before (0 min) and 15 min, 30 min, 60 min, 90 min, 120 min and 180 min after the administration of glucose were measured with blood glucose meter. The AUCs of the blood glucose-time curves of each mouse from 0 to 180 min were calculated with GraphPad Prism 9. […] Statistical differences were analyzed with One-way ANOVA. […]
10-week-old female humanized GLP-1R mice (25-28 g) were assigned into 5 groups, with 5 mice in each group, and each group was treated according to the scheme in Table 10. […] The blood glucose levels of the mice before (0 min) and 15 min, 30 min, 60 min, 90 min, 120 min and 180 min after the administration of glucose were measured with blood glucose meter. The AUCs of the blood glucose-time curves of each mouse were calculated with GraphPad Prism 9. […]

Mouse GLP-1R = target: T1, Mouse GLP-1R (Mus musculus, UniProt O35659); assay: cAMP HTRF antagonism assay in HEK293 transfected with mouse GLP-1R; format: cell-based
T1 construct: expressed in transfected cells; host or cells: HEK293 (ATCC, CRL-1573)
T1 sequence (O35659 22-463): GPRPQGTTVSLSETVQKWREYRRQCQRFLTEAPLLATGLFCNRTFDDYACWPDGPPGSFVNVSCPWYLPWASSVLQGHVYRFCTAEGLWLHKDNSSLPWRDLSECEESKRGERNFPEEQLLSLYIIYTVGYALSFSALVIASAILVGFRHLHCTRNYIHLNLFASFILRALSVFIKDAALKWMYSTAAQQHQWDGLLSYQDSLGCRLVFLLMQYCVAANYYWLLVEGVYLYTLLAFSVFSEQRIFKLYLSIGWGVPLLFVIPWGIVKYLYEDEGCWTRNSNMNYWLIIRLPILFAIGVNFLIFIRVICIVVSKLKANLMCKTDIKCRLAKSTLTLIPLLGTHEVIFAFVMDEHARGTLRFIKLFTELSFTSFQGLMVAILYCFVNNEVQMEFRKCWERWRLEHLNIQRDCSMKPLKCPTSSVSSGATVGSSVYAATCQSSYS
Method: HEK293 cells (ATCC, cat no. CRL-1573) were transfected with GLP-1R_pcDNA3.1/G418 (+) plasmids which can transcribe the mRNA of human (NM_002062.5), monkey (JN033215.1) and mouse (NM_021332.2) GLP-1R polypeptide. […] The plate was further incubated at 37° C. for 120 minutes. Finally, the CAMP level was measured with cAMP HTRF kit (Cisbio, 62AM4PEB). […] The data were analyzed by four-parameter curve fitting with GraphPad Prism 9, and IC50 was calculated.

Substance: GLP-1: native GLP-1 (7-37aa, R&D Systems, cat no. 5374/1), agonist used to activate GLP-1R (HAEGTFTSDVSSYLEGQAAKEFIAWLVKGRG; Glucagon-like peptide 1(7-37); UniProt P01275 98-128, looked up) [reference compound]
- effect of GLP-1 on blood glucose levels (in words) (C57BL/6 mice): could lower blood glucose levels
- effect of GLP-1 on blood glucose levels (in words) (humanized GLP-1R mice): can effectively lower the blood glucose levels

Substance: exendin 9-39 [Avexitide, reference compound]
- antagonism of activation of mouse GLP-1R by GLP-1 (in words) (Mouse GLP-1R): does antagonize the activation of mouse GLP-1R by GLP-1
